Measurements taken from article PMC11111852, “Exploration of the role of the penicillin binding protein 2c (Pbp2c) in inducible β-lactam resistance in Corynebacteriaceae” (Frontiers in Microbiology, 2024).

What was measured:
[1] = molecular target: T1, Pbp2c (Corynebacterium jeikeium, UniProt Q4JX88); test: electrospray mass spectrometry of covalent adduct; format: binding; settings: 20 uM protein, 200 uM drug, 1 h, 20 °C, 100 mM MES pH 6.4
T1 construct: residues 32-593 without N-terminal transmembrane segment; E. coli BL21(DE3); 62,975 Da; monomer

[2] = molecular target: T2, BlaCor (Corynebacterium jeikeium, UniProt Q4JX89); test: electrospray mass spectrometry of covalent adduct; format: binding; settings: not hydrolysed
T2 construct: gene jk0411; 276-residue protein with N-terminal His6-TEV tag (pET-TEV), E. coli BL21(DE3), observed mass 32,825 Da, monomer
T2 sequence (Q4JX89 entry or part of it): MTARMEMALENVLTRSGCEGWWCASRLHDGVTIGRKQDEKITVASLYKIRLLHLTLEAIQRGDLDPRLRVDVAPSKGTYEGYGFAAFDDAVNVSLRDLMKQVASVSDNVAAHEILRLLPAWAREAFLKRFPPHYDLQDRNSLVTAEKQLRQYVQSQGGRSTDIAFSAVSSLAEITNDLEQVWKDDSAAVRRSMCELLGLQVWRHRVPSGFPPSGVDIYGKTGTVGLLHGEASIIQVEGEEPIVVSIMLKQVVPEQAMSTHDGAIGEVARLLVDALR

T1 sequence (Q4JX88 entry or part of it): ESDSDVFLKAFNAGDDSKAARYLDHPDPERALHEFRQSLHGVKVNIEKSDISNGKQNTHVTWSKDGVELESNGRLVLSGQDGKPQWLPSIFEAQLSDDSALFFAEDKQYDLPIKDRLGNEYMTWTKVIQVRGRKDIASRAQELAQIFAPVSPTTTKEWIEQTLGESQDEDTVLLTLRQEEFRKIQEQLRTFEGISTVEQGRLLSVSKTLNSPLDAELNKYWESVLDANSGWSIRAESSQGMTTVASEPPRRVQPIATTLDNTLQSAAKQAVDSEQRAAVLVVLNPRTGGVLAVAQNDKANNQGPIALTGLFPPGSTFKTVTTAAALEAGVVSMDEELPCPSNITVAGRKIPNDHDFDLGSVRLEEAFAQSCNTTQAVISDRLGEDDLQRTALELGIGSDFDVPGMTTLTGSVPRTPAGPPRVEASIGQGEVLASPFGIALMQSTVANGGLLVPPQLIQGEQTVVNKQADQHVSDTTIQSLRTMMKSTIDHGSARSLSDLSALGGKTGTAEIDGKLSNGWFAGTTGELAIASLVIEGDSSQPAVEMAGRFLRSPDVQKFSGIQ

SMILES	electrospray mass spectrometry of covalent adduct [1]	electrospray mass spectrometry of covalent adduct [2]
C[C@@H](O)[C@H]1C(=O)N2C(C(=O)O)=C(SCCN=CN)C[C@H]12 [imipenem]	Incubation of Pbp2c with imipenem allowed the detection of adducts	
C[C@@H](O)[C@H]1C(=O)N2C(C(=O)O)=C(S[C@@H]3CN[C@H](C(=O)N(C)C)C3)[C@H](C)[C@H]12 [meropenem]	Adducts matching increments of the average mass of meropenem were also detected	
O=C(Cc1cccs1)N[C@@H]1C(=O)N2C(C(=O)O)=C(/C=C/c3ccc([N+](=O)[O-])cc3[N+](=O)[O-])CS[C@H]12 [nitrocefin]		the nitrocefin-BlaCor adduct was detected by mass spectrometry (data not shown)
